Assay results as given in PubChem BioAssay AID328 (DTP/NCI, 2004).
Values joined by “and” are separate entries in the source; they are usually repeats but may differ in a detail not shown here. Equal entries are not always repeated. Toxic doses and inconclusive results are not listed.

System: BDF1 mice, P388 leukemia ip, median survival T/C
Test: NCI In Vivo Anticancer Drug Screen. Data for tumor model P388 Leukemia (intraperitoneal) in B6D2F1 (BDF1) mice
Conditions: endpoint: median survival time, higher = longer survival
Method in brief: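 Antitumour effect was judged in vivo: survival in drug-treated mice, normalised to that of vehicle-dosed controls, gives the reported T/C.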

[1] = dose: 200.0 mg/kg/injection, schedule: Q01DX009 (ip), vehicle: saline with Tween-80
[2] = dose: 200.0 mg/kg/injection, schedule: Q04DX003 (ip), vehicle: saline with Tween-80
[3] = dose: 25.0 mg/kg/injection, schedule: Q01DX009 (ip), vehicle: Klucel (hydroxypropylcellulose) (HPC)
[4] = dose: 50.0 mg/kg/injection, schedule: Q01DX009 (ip), vehicle: Klucel (hydroxypropylcellulose) (HPC)
[5] = dose: 100.0 mg/kg/injection, schedule: Q01DX009 (ip), vehicle: Klucel (hydroxypropylcellulose) (HPC)
[6] = dose: 50.0 mg/kg/injection, schedule: Q01DX009 (ip), vehicle: saline with Tween-80
[7] = dose: 100.0 mg/kg/injection, schedule: Q01DX009 (ip), vehicle: saline with Tween-80
[8] = dose: 100.0 mg/kg/injection, schedule: Q04DX003 (ip), vehicle: other
[9] = dose: 200.0 mg/kg/injection, schedule: Q04DX003 (ip), vehicle: other
[10] = dose: 400.0 mg/kg/injection, schedule: Q04DX003 (ip), vehicle: other

For `O=[N+]([O-])c1ccccc1CSc1ncnc2nc[nH]c12`, the T/C (dose: 100.0 mg/kg/injection, schedule: Q04DX003 (ip), vehicle: saline with Tween-80) was 100 % of control, the T/C (dose: 132.0 mg/kg/injection, schedule: Q01DX009 (ip), vehicle: saline with Tween-80) was 104 % of control and the T/C [1] was 100 % of control. For the same molecule, the T/C [2] was 108 % of control, the T/C (dose: 300.0 mg/kg/injection, schedule: Q01DX009 (ip), vehicle: saline with Tween-80) was 86 % of control and the T/C (dose: 400.0 mg/kg/injection, schedule: Q04DX003 (ip), vehicle: saline with Tween-80) was 116 % of control.

`CCOC(=O)N1c2ccccc2C=CC1/C(N)=N/O` (centres undefined) was tested, and the T/C [3] was 109 % of control, the T/C [4] was 95 % of control and the T/C (dose: 50.0 mg/kg/injection, schedule: Q04DX003 (ip), vehicle: Klucel (hydroxypropylcellulose) (HPC)) was 95 % of control. The T/C [5] was 104 % of control and the T/C (dose: 100.0 mg/kg/injection, schedule: Q04DX003 (ip), vehicle: Klucel (hydroxypropylcellulose) (HPC)) was 95 % of control.

`C1OC1CO[C@H]1CO[C@H]2[C@@H]1OC[C@H]2OCC1CO1` (some centres undefined) was tested, and the T/C (dose: 264.0 mg/kg/injection, schedule: Q04DX003 (ip), vehicle: saline) was 160 % of control and 168 % of control and the T/C (dose: 400.0 mg/kg/injection, schedule: Q04DX003 (ip), vehicle: saline) was 180 % of control.

In the case of `CP12(OC(=O)c3ccccc31)OC(=O)c1ccccc12`, the T/C [6] is reported as 91 % of control, the T/C [7] is reported as 91 % of control and the T/C [1] is reported as 96 % of control.

In the case of `CSc1ncnc2c1ncn2C1CCCO1` (centres undefined), the T/C [3] is reported as 95 % of control, the T/C [4] is reported as 119 % of control and the T/C [5] is reported as 109 % of control. For the same molecule, the T/C (dose: 100.0 mg/kg/injection, schedule: Q04DX003 (ip), vehicle: saline) was 104 % of control and the T/C (dose: 150.0 mg/kg/injection, schedule: Q01DX009 (ip), vehicle: Klucel (hydroxypropylcellulose) (HPC)) was 87 % of control.

In the case of `CC(C#N)(C#N)N=Nc1ccc(Cl)cc1Cl`, the T/C [7] is reported as 116 % of control.

With `O=C/C(Cl)=C(/Cl)C(=O)O` the T/C (dose: 6.25 mg/kg/injection, schedule: Q04DX002 (ip), vehicle: saline with Tween-80) was 110 % of control, the T/C (dose: 12.5 mg/kg/injection, schedule: Q04DX002 (ip), vehicle: saline with Tween-80) was 108 % of control and the T/C (dose: 25.0 mg/kg/injection, schedule: Q04DX002 (ip), vehicle: saline with Tween-80) was 103 % of control.

`O=C(O)c1ccccc1C(=O)Nc1ccccc1C(F)(F)F` was tested, and the T/C [6] was 94 % of control, the T/C [7] was 89 % of control and the T/C [1] was 121 % of control.

In the case of `Cc1ccc2c(C)c3ccc4ccccc4c3c[n+]2c1`, the T/C (dose: 20.0 mg/kg/injection, schedule: Q04DX003 (ip), vehicle: saline) is reported as 118 % of control and the T/C (dose: 40.0 mg/kg/injection, schedule: Q04DX003 (ip), vehicle: saline) is reported as 118 % of control.

For `O=NN(CCCl)C(=O)NC1CCC(NC(=O)N(CCCl)N=O)CC1` (centres undefined), the T/C (dose: 11.0 mg/kg/injection, schedule: Q04DX003 (ip), vehicle: saline with Tween-80) was 229 % of control, the T/C (dose: 13.0 mg/kg/injection, schedule: Q01DX009 (ip), vehicle: saline with Tween-80) was 187 % of control and the T/C (dose: 20.0 mg/kg/injection, schedule: Q01DX009 (ip), vehicle: saline with Tween-80) was 250 % of control and 272 % of control. The T/C (dose: 22.0 mg/kg/injection, schedule: Q04DX003 (ip), vehicle: saline with Tween-80) was 209 % of control and 220 % of control, the T/C (dose: 30.0 mg/kg/injection, schedule: Q01DX009 (ip), vehicle: saline with Tween-80) was 272 % of control and the T/C (dose: 44.0 mg/kg/injection, schedule: Q01DX009 (ip), vehicle: saline with Tween-80) was 272 % of control. The T/C (dose: 44.0 mg/kg/injection, schedule: Q04DX003 (ip), vehicle: saline with Tween-80) was 272 % of control, the T/C (dose: 66.0 mg/kg/injection, schedule: Q01DX009 (ip), vehicle: saline with Tween-80) was 240 % of control and 272 % of control and the T/C (dose: 88.0 mg/kg/injection, schedule: Q04DX003 (ip), vehicle: saline with Tween-80) was 272 % of control and 300 % of control. The T/C [7] was 224 % of control and 192 % of control, the T/C (dose: 133.0 mg/kg/injection, schedule: Q04DX003 (ip), vehicle: saline with Tween-80) was 300 % of control and the T/C (dose: 150.0 mg/kg/injection, schedule: Q01DX009 (ip), vehicle: saline with Tween-80) was 176 % of control. The T/C [1] was 115 % of control, the T/C [2] was 300 % of control and the T/C (dose: 300.0 mg/kg/injection, schedule: Q04DX003 (ip), vehicle: saline with Tween-80) was 210 % of control.

In the case of `CC(=O)c1cccc([N+](=O)[O-])c1`, the T/C [8] is reported as 100 % of control, the T/C [9] is reported as 104 % of control and the T/C [10] is reported as 90 % of control.

In the case of `CCCCCCCC(=O)Nc1cc(C(F)(F)F)ccc1Cl`, the T/C [8] is reported as 100 % of control, the T/C [9] is reported as 109 % of control and the T/C [10] is reported as 104 % of control.

With `CCOC(=O)c1ccccc1S(=O)(=O)c1ccccc1C(=O)OCC` the T/C [6] was 106 % of control, the T/C [7] was 100 % of control and the T/C [1] was 112 % of control.
